≈ marks a conversion by molar mass, not a printed value. Read-outs that look alike come from different tables or passages of the source.
Legend:
[1] = Half-life in phosphate buffer pH 7.4; assay type: physicochemical; settings: phosphate buffer; for half-life at 100 µM: pH 7.4, τ1/2 (half-life)
Description: To a solution of p-nitrobenzyl 3-[2-(1-pyridinium)ethylthio)]-6α[1-(R)-hydroxyethyl]-7-oxo-1-azabicyclo(3.2.0)hept-2-ene-carboxylate diphenylphosphate (0.16 g, 0.22 mmol) in wet tetrahydrofuran (10mL) was added ether (10mL), potassium phosphate monobasic-sodium hydroxide buffer pH 7.4 (16 mL, 0.05 M) and 10% palladium on charcoal (0.16 g). The resulting mixture was hydrogenated under 40 psi for 1 h at 25° C. The two phases were separated and the organic phase was extracted with water (2×3 mL). The aqeuous solutions were combined, washed with ether (2×10 ml) and poured on top of a column (1.5×6.2 cm) pf μ-bondapak C-18 after the traces of organic solvents have been removed under vacuum. Elution of the column with water gave after lyophylization of the appropriate fractions a yellowish powder 0.062 g (84%), ir (KBr) .nu.max : 3700-3000 (OH), 1755 (C--O of β-lactam), 1630 (pyridinium), 1590 cm^-1 (carboxylate), ^1 Hmr (D2 O): 1.22 (3H, d, J=6.4 Hz, CH3 CHOH), 2.92 (d, J=9.1 Hz, H-4), 2.97 (d, J=9.1 Hz, H-4), 3.20 (dd, J=2.5 Hz, J=6.1 Hz, H-6), 3.44 (t, J=6.0 Hz, CH2 S), 3.93 (dd, J=9.1 Hz, J=2.5 Hz, H-5), 4.82 (t, J=6.0 Hz, CH2 N^+), 8.04 (m, Hm of pyridinium), 8.5 (m, Hp of pyridinium), 8.82 (dd, J=3.2. Hz, J=1.1 Hz, Ho of pyridinium), uv (H2 O) λ max : 259 (ε5800), 296 (ε7030) mμ, .tau.1/2 =13.5 h (measured at a concentration of 10^-4 M in phosphate buffer pH 7.4 at 36.8° C.).

E. cloacae A-9656 = assay: Minimum Inhibitory Concentration, tube dilution; assay type: cell-based; settings: Enterobacter cloacae, A9656; overnight 37° C.; table 6
[2] = tested on: S. aureus A15097 (Meth-res.); assay: Minimum Inhibitory Concentration, tube dilution; assay type: cell-based; settings: Staphylococcus aureus, table 6
P. rettgeri A22424 = assay: Minimum Inhibitory Concentration, tube dilution; assay type: cell-based; settings: Providencia rettgeri, overnight 37° C., table 6, read-out: MIC
S. pyogenes A-9604 = assay: Minimum Inhibitory Concentration, tube dilution; assay type: cell-based; settings: Streptococcus pyogenes, A9604, overnight 37° C.; table 6
[3] = tested on: S. aureus A-9606 (Pen-res.); assay: Minimum Inhibitory Concentration, tube dilution; assay type: cell-based; settings: Staphylococcus aureus, Pen-res; table 6
H. influenzae A-9833 = assay: Minimum Inhibitory Concentration, tube dilution; assay type: cell-based; settings: Haemophilus influenzae, A9833; overnight 37° C.; table 6; read-out: MIC
P. aeruginosa A9843A = assay: animal or person; assay type: in vivo, mice; settings: Pseudomonas aeruginosa, in Mus musculus, im, 3.5 h, read-out: PD50 /treatment
Description: (§1) Drugs were administered i.m. 0 to 2 hours post-infection (A9606) or 1 and 3.5 hours post-infection for the others.

K. pneumoniae A20468 = assay: Minimum Inhibitory Concentration, tube dilution; assay type: cell-based; settings: Klebsiella pneumoniae, A20468, overnight 37° C.; table 6; read-out: MIC
B. fragilis A22696 = assay: Minimum Inhibitory Concentration, tube dilution; assay type: cell-based; settings: Bacteroides fragilis, overnight 37° C., table 6, read-out: MIC
[4] = Pharmacokinetic parameters in the mouse after intramuscular dose; assay type: in vivo, mice; settings: im, 20 mg/kg
Description: Also shown is the urinary recovery in the mice.
Compounds were solubilized in 0.1 M phosphate buffer pH 7.

S. faecalis A20688 = assay: Minimum Inhibitory Concentration, tube dilution; assay type: cell-based; settings: Enterococcus faecalis, A20688, overnight 37° C.; table 6; read-out: MIC
P. aeruginosa A21213 = assay: Minimum Inhibitory Concentration, tube dilution; assay type: cell-based; settings: Pseudomonas aeruginosa, A21213, overnight 37° C.; table 6; read-out: MIC
P. mirabilis A-9900 = assay: Minimum Inhibitory Concentration, tube dilution; assay type: cell-based; settings: Proteus mirabilis, A9900, overnight 37° C.; table 6
E. coli A15119 = assay: Minimum Inhibitory Concentration, tube dilution; assay type: cell-based; settings: Escherichia coli, A15119, overnight 37° C.; table 6
M. morganii A15153 = assay: Minimum Inhibitory Concentration, tube dilution; assay type: cell-based; settings: Morganella morganii, A15153, overnight 37° C.; table 6
S. aureus A9606 = assay: Protective effect, intramuscular treatment of infected mice (table 7); assay type: in vivo; settings: Staphylococcus aureus, A9606, im; i.m. 0 to 2 hours post-infection; ~1×10^9 organisms i.p.; read-out: PD50 /treatment
Description: as §1

P. aeruginosa A20481 = assay: as above; assay type: in vivo; settings: Pseudomonas aeruginosa, A20481, im; i.m. 1 and 3.5 hours post-infection; ~1×10^5 organisms i.p.; read-out: PD50 /treatment
Description: as §1

P. mirabilis A9900 = assay: as above; assay type: in vivo; settings: Proteus mirabilis, A9900, im; i.m. 1 and 3.5 hours post-infection; ~1×10^7 organisms i.p.; read-out: PD50 /treatment
Description: as §1

P. vulgaris A21559 = assay: Minimum Inhibitory Concentration, tube dilution; assay type: cell-based; settings: Proteus vulgaris, A21559, overnight 37° C.; table 6
E. cloacae A9659 = assay: Minimum Inhibitory Concentration, tube dilution; assay type: cell-based; settings: Enterobacter cloacae, A9659, overnight 37° C.; table 6; read-out: MIC
S. aureus A-9537 = assay: Minimum Inhibitory Concentration, tube dilution; assay type: cell-based; settings: Staphylococcus aureus, table 6, read-out: MIC
B. fragilis A22862 = assay: Minimum Inhibitory Concentration, tube dilution; assay type: cell-based; settings: Bacteroides fragilis, overnight 37° C., table 6
H. influenzae A21518 = assay: Minimum Inhibitory Concentration, tube dilution; assay type: cell-based; settings: Haemophilus influenzae, overnight 37° C., table 6
E. coli A20341-1 = assay: Minimum Inhibitory Concentration, tube dilution; assay type: cell-based; settings: Escherichia coli, A203411, overnight 37° C.; table 6
S. pneumoniae A-9585 = assay: Minimum Inhibitory Concentration, tube dilution; assay type: cell-based; settings: Streptococcus pneumoniae, A9585, overnight 37° C.; table 6
P. aeruginosa A-9843A = assay: Minimum Inhibitory Concentration, tube dilution; assay type: cell-based; settings: Pseudomonas aeruginosa, A9843A, overnight 37° C.; table 6; read-out: MIC

Row | SMILES | half-life at 100 µM [1] | MIC (E. cloacae A-9656) | MIC [2] | MIC (P. rettgeri A22424) | MIC (S. pyogenes A-9604) | MIC [3] | MIC (H. influenzae A-9833) | ED50 (P. aeruginosa A9843A) | MIC (B. fragilis A22696) | MIC (S. faecalis A20688) | MIC (E. coli A15119) | ED50 (S. aureus A9606) | ED50 (P. aeruginosa A20481) | ED50 (P. mirabilis A9900) | MIC (P. vulgaris A21559) | MIC (S. aureus A-9537; A9537, 50% serum) | MIC (S. aureus A-9537; A9537, overnight 37° C.) | MIC (B. fragilis A22862) | MIC (H. influenzae A21518) | MIC (E. coli A20341-1) | other results
1 | CC(C[n+]1ccccc1)SC1=C(C(=O)[O-])N2C(=O)[C@H]([C@@H](C)O)[C@H]2C1 (single isomer, unassigned) [Ex. 15 (cmp. "B")] | 12.6 h | 0.06 µg/mL (≈ 0.172 µM) | 0.03 µg/mL (≈ 0.0861 µM) | 0.06 µg/mL (≈ 0.172 µM) |  |  |  |  |  |  |  |  |  |  |  |  |  |  |  |  | 
2 | Cc1cc(C)c[n+](CCSC2=C(C(=O)[O-])N3C(=O)[C@H]([C@@H](C)O)[C@H]3C2)c1 [Example 4] | 16.9 h | 0.25 µg/mL (≈ 0.69 µM) | > 63 µg/mL | 0.5 µg/mL (≈ 1.38 µM) | 0.03 µg/mL (≈ 0.0828 µM) | 0.5 µg/mL (≈ 1.38 µM) | > 32 µg/mL | 5 mg/kg | 0.25 µg/mL (≈ 0.69 µM) | 0.5 µg/mL (≈ 1.38 µM) | 0.06 µg/mL (≈ 0.166 µM) | 0.4 mg/kg | > 5 mg/kg | ~22 mg/kg | 0.03 µg/mL (≈ 0.0828 µM) | 0.03 µg/mL (≈ 0.0828 µM) | 0.03 µg/mL (≈ 0.0828 µM) | 0.06 µg/mL (≈ 0.166 µM) | > 32 µg/mL | 0.06 µg/mL (≈ 0.166 µM) | MIC (K. pneumoniae A20468): 0.25 µg/mL (≈ 0.69 µM); AUC ([4]; blood): 5500 ng·h/mL; Cmax ([4]; blood): 11400 ng/mL; half-life ([4]; blood, read-out: T1/2 (blood)): 0.173 h; dose excreted ([4]; urine, read-out: Urine Recovery): 49 ± 6%; MIC (P. aeruginosa A21213): 2 µg/mL (≈ 5.52 µM); MIC (P. mirabilis A-9900): 0.25 µg/mL (≈ 0.69 µM); MIC (M. morganii A15153): 0.25 µg/mL (≈ 0.69 µM); MIC (E. cloacae A9659): 0.25 µg/mL (≈ 0.69 µM); MIC (S. pneumoniae A-9585): 0.03 µg/mL (≈ 0.0828 µM); MIC (P. aeruginosa A-9843A): 32 µg/mL (≈ 88.3 µM)
3 | C[C@@H](O)[C@H]1C(=O)N2C(C(=O)[O-])=C(SCC[n+]3cccc(CO)c3)C[C@H]12 [Example 5, (5R,6S)-3-[[2-(3-hydroxymethylpyridino)ethyl]thio]-6-[(R)-1-hydroxyethyl]-7-oxo-1-azabicyclo[3.2.0]hept-2-ene-2-carboxylate] |  |  | > 63 µg/mL |  | 0.03 µg/mL (≈ 0.0823 µM) | 0.03 µg/mL (≈ 0.0823 µM) | > 32 µg/mL | 0.9 mg/kg | 0.5 µg/mL (≈ 1.37 µM) | 0.5 µg/mL (≈ 1.37 µM) | 0.06 µg/mL (≈ 0.165 µM) | 0.5 mg/kg | 0.8 mg/kg | 22 mg/kg | 0.06 µg/mL (≈ 0.165 µM) | 0.06 µg/mL (≈ 0.165 µM) | 0.03 µg/mL (≈ 0.0823 µM) | 0.06 µg/mL (≈ 0.165 µM) | > 32 µg/mL | 0.06 µg/mL (≈ 0.165 µM) | half-life ([1]; pH 7.4, t1/2 (half-life)): 14 h; MIC (S. pneumoniae A-9585): 0.03 µg/mL (≈ 0.0823 µM); MIC (P. aeruginosa A-9843A): 2 µg/mL (≈ 5.49 µM)

From patent US4642341A, “Carbapenem antibiotics” (priority 1985, dated 1987)
